From patent publication US10076511B2, “Bisamide derivative of dicarboxylic acid as an agent for stimulating tissue regeneration and recovery of diminished tissue function” (TREAMID GmbH, priority 2015, dated 2018)

Legend:
male C57BL/6 mice [1] = experiment: Fertility of male mice on a metabolic syndrome model; format: in vivo, mouse
Method: (§1) Metabolic disorders were simulated as follows: on Day 2 after birth, male C57Bl/6 mice were injected with streptozotocin at a dose of 200 mg/kg, once, subcutaneously in the withers area, and the volume of the injected solution was 30 μl. From week 4 after birth, the animals were transferred to a high-fat diet. For this purpose, the used feed was enriched with heavy saturated fats (30% fat) (Siff EF R/M with 30% Fat Cat No. E15116-34, Germany). The animals were held on the high-fat diet for 42 days (from Day 28 to Day 70 of the study). Treamid was administered at a dose of 10 mg/kg intragastrically once daily, every day from Day 49 to Day 80 of the experiment. The control animals received the equivalent volume of a solvent, instead of the test compound.
The fertility of the males was estimated as follows: intact females were placed to the males of the experimental groups in a ratio of 1:2 for a period of from Day 70 to Day 80 of the study. During this period, the males of the experimental group continued to be administered intragastrically Treamid once daily at a dose of 10 mg/kg.
At the end of the mating period, on Day 80 of the study, the males were euthanized in a CO2 chamber. The blood of the animals was taken and analyzed for serum levels of free testosterone by enzyme immunoassay. Euthanasia was performed in the morning hours from 9:30 to 11:00.
The females were sacrificed in the CO2 chamber on Day 18 of pregnancy. The fetuses in the uterus were examined. The fertility index (FI) was calculated to assess fertility: FI=number of fertilized females/number of females placed with males×100%.

male Wistar rats = experiment: Pair-test of sexual behavior, seasonal suppression of copulatory activity; format: in vivo, rat
Method: Seasonal suppression of reproductive activity was simulated by carrying out the experiment in the winter period (end of December). As a background group, intact animals (3 months of age) were tested in June.
The experiments were carried out on 27 male Wistar rats of reproductive age (3 months). Treamid at a dose of 5 mg/kg and reference drug Sildenafil (at a dose of 3 mg/kg) were administered intragastrically […], once daily for 15 days. The sexual activity was estimated by the pair-test of sexual behavior. The test was carried out twice: before administration and one hour after the last administration of Treamid. The rats of the control groups receiving the solvent were tested at the same time as the animals of the experimental groups.
The experiment also comprised the use of female rats in the estrus stage caused by a preliminary 4-fold injection of the Synestrel. The effectiveness of Treamid was estimated by the following indices: latency until the first mating attempt (LFM), the number of mating attempts (MN), and the number of ejaculations (EN). The obtained data were compared with those of the same animals before the administration of the tested compound and with the data of the control group (the second test).

male C57BL/6 mice [2] = experiment: Metabolic syndrome model in mice (streptozotocin + high-fat diet): pancreas, glucose, testosterone; format: in vivo, mouse
Method: as §1, with “mg/kg” for “mg/kg,”, “diet high in fat.” for “high-fat diet.”, “duration of feeding with a” for “animals were held on the”, “feed was” for “diet for”, “experiment). […]” for “study). Treamid was administered at a dose of 10 mg/kg intragastrically once daily, every day from Day 49 to Day 80 of the experiment.”, “solvent (2% starch mucus),” for “solvent,”
On Days 28, 35, 42, 49, 56, 63, and 70 of the study, blood glucose was determined. The blood glucose level was determined with a glucometer meter (Accu-Chek Performs Nanu (“Roche Diagnostes GmbH”, Germany). Blood glucose was measured in animals after 16-hour feed deprivation; all subsequent measurements of the glucose level were also performed after 16-hour feed deprivation.
On Day 70 day, animals were euthanized in a CO2 chamber. Then, the serum free testosterone level was studied, and the morphological examination of the pancreas was performed.
The level of free testosterone in the serum was evaluated by enzyme immunoassay according to the protocol of manufacturer's test system.
For morphological study, a part of the pancreas adjacent to the spleen was fixed in 10% formalin and poured into paraffin according to the standard method.
Deparaffined sections of the gland were stained with hematoxylin and eosin. On the sections, the area of 10 serial islets of Langerhans was determined by graphic computer analysis, and the total number of cells and the number of pyknotized cells were counted therein. Then, the number of cells per unit islet area and the percentage of the pyknotized cells were calculated. Inflammatory cells (neutrophils, lymphocytes, macrophages) in the pancreatic tissue and their composition were studied by staining of the histological sections with hematoxylin-eosin.

[3] = first test, before administration, winter period
[4] = second test, one hour after last administration, Treamid 5.0 mg/kg, Sildenafil 3 mg/kg intragastrically, 15 days
[5] = Day 70, Treamid (1 mg/kg), n = 8

## O=C(CCCC(=O)NCCc1ncc[nH]1)NCCc1ncc[nH]1 [Treamid]
Male C57BL/6 mice [1]; 10 mg/kg, Day 80
  increase of free testosterone in the blood serum in comparison with intact animals: 16%
  increase of free testosterone in the blood serum in comparison with the pathological control: 2 times
Male C57BL/6 mice [1]; Day 80, Treamid 10 mg/kg intragastrically Day 49-80
  Free testosterone in the blood serum (pg/ml): 3.46 ± 1.87*• pg/ml
Male C57BL/6 mice [1]; Treamid 10 mg/kg Day 49-80
  fertility index relative to untreated metabolic disorders (pathological control): 1.8 times
Male C57BL/6 mice [1]; mating Day 70-80, Treamid 10 mg/kg Day 49-80
  Fertility index, %: 55*• %
Male Wistar rats; Treamid 5 mg/kg
  decrease of latency until the first mount after administration compared to before: 1.8 times
Male Wistar rats; Treamid 5 mg/kg, statistically insignificant
  increase of total number of mating attempts: 1.8 times
Male Wistar rats; [3]
  LFM: 462.00 ± 117.81 s
  the number of ejaculations, %: 0%
  the number of mounts, abs.: 3.67 ± 1.34 abs.
Male Wistar rats; [4]
  LFM, sec: 251.33 ± 103.86♦ sec
  the number of mounts, abs.: 6.56 ± 1.68 abs.
Male C57BL/6 mice [2]; Day 28 (before Treamid, given Day 49-70)
  Serum glucose concentration: 5.36 ± 1.28 mmol/L
Male C57BL/6 mice [2]; Day 35 (before Treamid, given Day 49-70)
  Serum glucose concentration: 4.21 ± 1.81 mmol/L
Male C57BL/6 mice [2]; Day 42 (before Treamid, given Day 49-70)
  Serum glucose concentration: 12.75 ± 2.6 mmol/L
Male C57BL/6 mice [2]; Day 49, Treamid 10 mg/kg intragastrically Day 49-70
  Serum glucose concentration: 13.59 ± 2.41 mmol/L
Male C57BL/6 mice [2]; Day 56, Treamid 10 mg/kg intragastrically Day 49-70
  Serum glucose concentration (mmol/L): 12.91 ± 4.48*• mmol/L
Male C57BL/6 mice [2]; Day 63, Treamid 10 mg/kg intragastrically Day 49-70
  Serum glucose concentration (mmol/L): 14.47 ± 3.21*• mmol/L
Male C57BL/6 mice [2]; Day 70, Treamid 10 mg/kg
  Free testosterone (pg/ml), serum: 3.70 ± 0.46 pg/mL
Male C57BL/6 mice [2]; Day 70, Treamid 10 mg/kg intragastrically Day 49-70
  Serum glucose concentration: 21.82 ± 5.83 mmol/L
Male C57BL/6 mice [2]; [5]
  % of pyknotized cells in the islet of Langerhans: 0.99 ± 0.06• %
  Area of an islet (pixel): 743399 ± 21134*• pixel
  The number of islets in 30 vision fields: 7.4 ± 0.37•
